Results from ChEMBL document CHEMBL1201862, “PubChem BioAssay data set” (2004).
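Dose response: 5 concentrations. Exposure: 48 h. Format: 96-well plates. Endpoint: linear interpolation; highest concentration if not reached. The concentration for 50% growth inhibition is given as GI50.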 The source made the active and inactive calls. No stated cut-off is given here; in the data, active = GI50 up to about 1.1 µM and inactive = higher.

What was measured:
Assay in all cases: growth of human tumour cells (NCI), 48 h
ACHN = system: ACHN
HOP-92 = system: HOP-92
LOX IMVI = system: LOX IMVI
KM12 = system: KM12
OVCAR-8 = system: OVCAR-8
CCRF-CEM = system: CCRF-CEM
MOLT-4 = system: MOLT-4
NCI-H460 = system: NCI-H460
NCI-H226 = system: NCI-H226
A549 = system: A549
COLO 205 = system: COLO 205
OVCAR-5 = system: OVCAR-5
IGROV-1 = system: IGROV-1
U-251 = system: U-251
SK-MEL-5 = system: SK-MEL-5
OVCAR-3 = system: OVCAR-3
MCF7 = system: MCF7
MDA-MB-435 = system: MDA-MB-435
Hs-578T = system: Hs-578T
DU-145 = system: DU-145

Measured: GI50

O=C1CCC(=O)C1=NNc1cc(Cl)cc(Cl)c1
inactive: ACHN > 100 µM | HOP-92 > 100 µM | LOX IMVI > 100 µM | KM12 > 100 µM | OVCAR-8 > 100 µM | CCRF-CEM 47.8 µM | MOLT-4 53.8 µM | NCI-H460 71.8 µM | NCI-H226 > 100 µM | A549 > 100 µM | COLO 205 36.6 µM | OVCAR-5 > 100 µM | IGROV-1 > 100 µM | U-251 69.2 µM | SK-MEL-5 61.5 µM | OVCAR-3 26.2 µM

O=C1C2CC=CCC2C(=O)N1n1c(-c2ccccc2)n[nH]c1=O (stereo not drawn)
inactive: ACHN > 100 µM | MCF7 > 100 µM | MDA-MB-435 > 100 µM | HOP-92 > 100 µM | LOX IMVI > 100 µM | KM12 > 100 µM | OVCAR-8 > 100 µM | CCRF-CEM > 100 µM | MOLT-4 > 100 µM | NCI-H460 > 100 µM | NCI-H226 > 100 µM | A549 > 100 µM | COLO 205 > 100 µM | OVCAR-5 > 100 µM | IGROV-1 > 100 µM | U-251 > 100 µM | SK-MEL-5 > 100 µM | OVCAR-3 > 100 µM | Hs-578T > 100 µM

CCCCN(CC)C(=O)C(=O)Cc1nc2ccc(C(=O)c3ccccc3)cc2nc1O
inactive: ACHN 41 µM | HOP-92 53 µM | LOX IMVI > 84.7 µM | KM12 > 100 µM | OVCAR-8 > 100 µM | CCRF-CEM 27.2 µM | MOLT-4 21.1 µM | NCI-H460 13.6 µM | NCI-H226 > 67.9 µM | A549 > 100 µM | COLO 205 > 76.2 µM | OVCAR-5 > 100 µM | IGROV-1 > 100 µM | U-251 73.1 µM | SK-MEL-5 50.1 µM | OVCAR-3 > 100 µM

COC(=O)OCC1OC(N2C(=O)NC(=O)C(I)C2N=[N+]=[N-])CC1OC(=O)OC (stereo not drawn)
inactive: ACHN > 100 µM | HOP-92 > 100 µM | LOX IMVI > 100 µM | KM12 > 100 µM | OVCAR-8 > 100 µM | CCRF-CEM > 100 µM | MOLT-4 > 100 µM | NCI-H460 > 100 µM | NCI-H226 > 100 µM | A549 > 100 µM | COLO 205 > 100 µM | OVCAR-5 > 100 µM | IGROV-1 > 100 µM | U-251 > 100 µM | SK-MEL-5 > 100 µM | OVCAR-3 > 100 µM

OCC(CO)C1c2cccc3ccc4cccc1c4c23
inactive: ACHN > 100 µM | HOP-92 80.9 µM | LOX IMVI > 100 µM | KM12 > 100 µM | OVCAR-8 > 100 µM | CCRF-CEM > 100 µM | MOLT-4 > 100 µM | NCI-H460 > 100 µM | NCI-H226 67.5 µM | A549 > 100 µM | COLO 205 > 100 µM | OVCAR-5 > 100 µM | IGROV-1 > 100 µM | U-251 > 100 µM | SK-MEL-5 > 100 µM | OVCAR-3 > 100 µM

CCN(CC)CCCC(C)NC(=O)c1cc(-c2nccn2C)nc2ccc(C)cc12 (stereo not drawn)
inactive: ACHN > 100 µM | MCF7 64.7 µM | MDA-MB-435 > 100 µM | HOP-92 > 100 µM | LOX IMVI > 100 µM | DU-145 > 100 µM | KM12 > 100 µM | OVCAR-8 > 100 µM | MOLT-4 > 10 µM | NCI-H460 33 µM | NCI-H226 > 100 µM | A549 > 100 µM | COLO 205 > 100 µM | OVCAR-5 > 100 µM | IGROV-1 > 100 µM | U-251 > 100 µM | SK-MEL-5 > 100 µM

CC(/C=C/C(=O)c1sc(C(N)=S)nc1C)=C\c1ccccc1
inactive: ACHN 81.8 µM | HOP-92 > 100 µM | LOX IMVI 18.2 µM | KM12 > 100 µM | OVCAR-8 > 100 µM | CCRF-CEM 58.2 µM | MOLT-4 > 100 µM | NCI-H460 35.4 µM | NCI-H226 > 100 µM | A549 > 100 µM | COLO 205 54 µM | OVCAR-5 > 100 µM | IGROV-1 > 100 µM | U-251 > 100 µM | SK-MEL-5 > 100 µM | OVCAR-3 > 100 µM

COC(=O)/C=C(\C(=O)OC)c1c2c3c(cc(OC)c(OC)c3c3ccccc13)CCN2C
inactive: ACHN 40.6 µM | HOP-92 44.9 µM | LOX IMVI 49.5 µM | KM12 36.1 µM | OVCAR-8 45.7 µM | CCRF-CEM 24 µM | MOLT-4 24.1 µM | NCI-H460 35.9 µM | NCI-H226 29.6 µM | A549 24.4 µM | COLO 205 14.7 µM | OVCAR-5 > 100 µM | IGROV-1 26.8 µM | U-251 39 µM | SK-MEL-5 13.8 µM | OVCAR-3 28.2 µM

CC(C)(C)/N=N/C(C)(C)N=C=O
inactive: ACHN > 100 µM | HOP-92 > 100 µM | LOX IMVI > 100 µM | KM12 > 100 µM | OVCAR-8 > 100 µM | CCRF-CEM > 100 µM | MOLT-4 > 100 µM | NCI-H460 > 100 µM | NCI-H226 > 100 µM | A549 > 100 µM | COLO 205 > 100 µM | OVCAR-5 > 100 µM | IGROV-1 > 100 µM | U-251 > 100 µM | SK-MEL-5 > 100 µM | OVCAR-3 > 100 µM

C=C(C)CCN(C(=O)OC(C)(C)C)c1cc(C(C)C)co1
inactive: ACHN 73.6 µM | MCF7 40.4 µM | MDA-MB-435 96.2 µM | HOP-92 11.4 µM | LOX IMVI 28 µM | DU-145 45 µM | KM12 64.3 µM | OVCAR-8 37.5 µM | CCRF-CEM 25.6 µM | MOLT-4 30.3 µM | NCI-H226 57.7 µM | A549 48.4 µM | COLO 205 58.2 µM | OVCAR-5 > 100 µM | IGROV-1 > 100 µM | U-251 26.7 µM | SK-MEL-5 44.3 µM | OVCAR-3 40.5 µM

CC(C)CC12CC3CCC(CNC1=O)C32C (stereo not drawn)
inactive: ACHN > 100 µM | HOP-92 > 100 µM | LOX IMVI > 100 µM | KM12 > 100 µM | OVCAR-8 > 100 µM | CCRF-CEM 35.5 µM | MOLT-4 40.5 µM | NCI-H460 > 100 µM | NCI-H226 > 100 µM | A549 > 100 µM | COLO 205 > 100 µM | OVCAR-5 96.8 µM | IGROV-1 > 100 µM | U-251 > 100 µM | SK-MEL-5 > 100 µM | OVCAR-3 > 100 µM

COc1ccc(/C=C/c2cc(OC)cc(OC)c2)cc1 [TRISMETHOXYRESVERATROL]
inactive: ACHN 7.08 µM | HOP-92 8.07 µM | LOX IMVI 6.7 µM | KM12 4.17 µM | OVCAR-8 22.1 µM | CCRF-CEM 3.97 µM | MOLT-4 4.51 µM | NCI-H460 3.73 µM | NCI-H226 5.43 µM | A549 6.32 µM | COLO 205 3.41 µM | OVCAR-5 14 µM | IGROV-1 6.44 µM | U-251 4.06 µM | SK-MEL-5 4.23 µM | OVCAR-3 3.3 µM
